Assay results published in patent US20180344715A1, “WNT/BETA-CATENIN SIGNAL TRANSDUCTION INHIBITORS AND THEIR USE IN TREATMENT OR PREVENTION OF DISEASES AND CONDITIONS LINKED WITH SAID TRANSDUCTION” (BERGEN TEKNOLOGIOVERFORING AS, priority 2015, published 2018).

Tested on: Wnt/β-catenin signaling
Assay: TOPFlash reporter assay in 293FT cells
Type: cell-based, human
Details: 1 μM 6BIO together with drug at indicated concentrations, 24 hours
Method: TOPFlash assay was performed in 96-well plate. For each well, 293T cells were transfected with 0.22 μg TOPFlash (or FOPFlash with mutant TCF binding sites) and 0.02 μg pRL-SV40P using lipofectamine 3000. For co-transfection with other plasmids, 0.1 μg additional DNA was used. […] The luciferase activity was measured 24 hours later by using Dual-Glo® Luciferase Assay System (Promega, E2940) according to the recommended protocol. The TOPFlash or FOPFlash activity was normalized to Renilla luciferase signals.
TOPFlash assay was performed as described above. Briefly, for each well of a 96-well plate 293FT cells were transfected with 0.22 μg TOPFlash (or FOPFlash with mutant TCF binding sites) and 0.02 μg pRL-SV40P using lipofectamine 3000. For co-transfection with other plasmids, 0.1 μg additional DNA was used. Four hours after transfection, 293FT cells were treated with DMSO, 1 μM 6B10 and 1 μM 6B10 together with pazopanib, orlistat and topotecan at varying concentrations for 24 hours. The luciferase activity was then measured using Dual-Glo® Luciferase Assay System (Promega, E2940) according to the recommended protocol. The TOPFlash or FOPFlash activity was normalized to Renilla luciferase signals.

SMILES	TOPFlash activity normalized to Renilla luciferase activity
CCCCCCCCCCC[C@@H](C[C@@H]1OC(=O)[C@H]1CCCCCC)OC(=O)[C@H](CC(C)C)NC=O [orlistat, (S)-((S)-1-((2S,3S)-3-Hexyl-4-oxooxetan-2-yl)tridecan-2-yl) 2-formamido-4-methylpentanoate]	Wnt signaling inhibition
CC[C@@]1(O)C(=O)OCc2c1cc1n(c2=O)Cc2cc3c(CN(C)C)c(O)ccc3nc2-1.Cl [topotecan, (S)-10-[(dimethylamino)methyl]-4-ethyl-4,9-dihydroxy-1H-pyrano[3′,4′:6,7]indolizino[1,2-b]quinoline-3,14(4H,12H)-dione monohydrochloride]	Wnt signaling inhibition
